# Test: Human HepG2 cell viability assay in 384 well format
# Type: toxicity, cell-based
# Parameters: dose 125 nL, time 70.5 hour; concentration not given beside the values
# Conditions: HepG2 cells, read-out: Inhibition
row,SMILES,cytotoxicity at 70.5 h [%]
1,Cc1nc(CCC(N)=O)cc(C2CCNCC2)n1,18.8
2,Fc1ccc(Cc2cccc(C3CCN(C4CCOCC4)CC3)n2)cc1,0.432
3,Cc1noc2nc(C3CCN(Cc4ccccn4)CC3)cc(C(F)F)c12,-2.48
4,Oc1nc(N2CCOCC2)nc2c1CCN(Cc1cccc(F)c1)CC2,-5.57
5,CC(C)n1ccnc1CN1CCOC(C)(C(=O)N2CCOCC2)C1 (stereo unspecified),-5.02
6,NC(=O)C1(CCCc2ccccn2)CCCN(Cc2ccncc2)C1 (stereo unspecified),-2.02
7,Oc1nc(N2CCOCC2)nc2c1CCN(Cc1ccc(F)cc1)CC2,-2.02
8,NC(=O)C1(CCCc2ccccn2)CCCN(Cc2ncc[nH]2)C1 (stereo unspecified),1.81
9,Cc1nc(NC2CCCC2)cc(C2CCN2C(=O)c2ccccn2)n1 (stereo unspecified),-4.92
10,O=C(c1ccccc1F)N1CCOC(c2nc(-c3ncccn3)no2)C1 (stereo unspecified),-2.38
11,Cc1ccc(C2CCCN(C(=O)c3cnn(C)c3)C2)nc1 (stereo unspecified),24.3
12,CNC(=O)C1(c2cnccn2)CCCN1C(=O)c1ccccc1 (stereo unspecified),17.8
13,O=C(c1cc(C2CCCCN2C(=O)C2CCC2)n[nH]1)N1CCOCC1 (stereo unspecified),18.8
14,CNC(=O)C1(c2cnccn2)CCCN1C(=O)c1cccc(F)c1 (stereo unspecified),20.4
15,O=C(c1cccnc1)N1CCOC(c2ccc(-c3cncnc3)cn2)C1 (stereo unspecified),-0.513
16,O[C@@H]1CN(Cc2cccnc2)C[C@H]1Oc1ccccc1,0.823
17,Cc1nn(C)c(C)c1CN1CCCC1c1nccc(CN(C)C)n1 (stereo unspecified),-0.0769
18,O=C(c1cncs1)N1CCC(Cc2cnc3[nH]ccc3c2)CC1,15.3
19,Cc1cc(C2CCN(C(=O)c3cnn(C)c3)CC2)ccn1,-5.33
20,CC(C)N1CCC(Cc2cncc(-c3cccc(C(=O)O)c3)n2)C1 (stereo unspecified),-5.63
21,CNC(=O)c1ccc(C2CN(C(=O)c3cnn(C)c3)CCO2)nc1 (stereo unspecified),-4.81
22,Cn1cc(C(=O)N2CCCC(c3cc(O)n(C)n3)C2)cn1 (stereo unspecified),7.43
23,CC(=O)N1CCCCC1c1nc(C)cc(-c2ccccc2C(=O)O)n1 (stereo unspecified),-1.42
24,CNC(=O)C1(c2cnccn2)CCCN1C(=O)c1ccccc1F (stereo unspecified),-3.62

row,SMILES,cytotoxicity at 70.5 h [%]
1,CNc1cccc(C2CCCN(C(=O)c3cnccn3)C2)n1 (stereo unspecified),-0.4
2,O=C(c1cnccn1)N1CCC(Cc2cnc3[nH]ccc3c2)CC1,-2.92
3,Cc1ccccc1-c1cncc(C2CCN(C3CCOCC3)CC2)n1,1
4,COc1ccc(CN(C)[C@@H]2CN(C(=O)c3cnn(C)c3)C[C@H]2O)cc1,-6.51
5,Cc1ccccc1-c1cncc(C2CCN(S(=O)(=O)N(C)C)CC2)n1,-2.74
6,COc1ccc(CN(C)[C@@H]2CN(C(=O)c3cccnc3)C[C@H]2O)cc1,2.56
7,CCCN(C(=O)c1cnc(C)cn1)c1nc2c(s1)CCc1c-2cnn1C,14.9
8,O=C(c1cccs1)N1CCc2c(nc(N3CCCC3)[nH]c2=O)C1,-0.974
9,CC(C)C(=O)N1CCC(n2nc(-c3ccco3)ccc2=O)CC1,15.9
10,CS(=O)(=O)c1snnc1C1CCCN(Cc2ccncc2)C1 (stereo unspecified),-11.9
11,Cc1nc(O)c2nnn(C[C@H]3CCCN3C(=O)c3ccc(F)cc3)c2n1,-4.53
12,Cc1nc(O)c2nnn(C[C@H]3CCCN3C(=O)C3CCCC3)c2n1,-4.22
13,COc1ccc(CN(C)[C@@H]2CN(C(=O)c3cccn3C)C[C@H]2O)cc1,16.9
14,CC(=O)N1CCC(c2nn(C)c3nccnc23)C1 (stereo unspecified),-5.3
15,CN1CCCC(c2cccc(CCC(N)=O)n2)C1 (stereo unspecified),-3.92
16,CNC(=O)C1(c2cnccn2)CCCN1C(=O)c1ccccn1 (stereo unspecified),8.19
17,CNC(=O)C1(c2cnccn2)CCCN1C(=O)c1cccc(C)n1 (stereo unspecified),-5.53
18,CN1CCCC[C@@H]2[C@H]1[C@@H](c1ccccc1)CCN2C(=O)c1ccncc1,-5.64
19,CC(=O)N1CCN(c2cc(CCNC(=O)C(C)C)nc(C3CC3)n2)CC1,-7.84
20,CN1CC(c2cc(O)nc(NCc3cccc(F)c3)n2)CC1=O (stereo unspecified),-10.4
21,CCc1cc(C(=O)N2CCCC2c2nc(C)c(CC)c(O)n2)on1 (stereo unspecified),-6.15
22,CN(CC(=O)NCc1cc2ccccc2o1)S(C)(=O)=O,-0.935
23,CCN(CCC#N)Cn1ncc2cn(-c3ccccc3)nc2c1=O,-2.4
24,COc1ccc(Cl)cc1NCC(=O)N(Cc1ccccn1)C1CC1,-4.9

row,SMILES,cytotoxicity at 70.5 h [%]
1,COc1ccccc1OCCNC(=O)NCc1nc(C)no1,-6.75
2,COCCn1c(C(=O)NC(C(N)=O)C(C)C)cc2ccccc21 (stereo unspecified),-6.02
3,O=C(NC(C1CC1)C1CC1)c1cccc[n+]1[O-],-2.48
4,COc1c(C2CCCN2c2ncnc3ccsc23)c(C)nn1C (stereo unspecified),-3.57
5,CNS(=O)(=O)CC1CCCN1c1ccc(Br)cn1 (stereo unspecified),-0.632
6,CCc1cnc(CN(C)C2CCN(c3sccc3C#N)C2=O)s1 (stereo unspecified),13.4
7,O=C(NC1(C(=O)NCC2CC2)CCCC1)C1Cc2cc(F)ccc2O1 (stereo unspecified),-4.27
8,COCCn1c(C(=O)NCC(C)C(=O)O)cc2ccccc21 (stereo unspecified),0.983
9,COC(=O)C1CCCCN1C(=O)c1ccc(N(C)C)cc1F (stereo unspecified),2.71
10,Cc1nc(CN(C)C(=O)Nc2cccc(COC(C)C)c2)no1,-1.56
11,CCCN(C(=O)CN1CCN(CC(C)O)CC1)C1=CCCCC1 (stereo unspecified),35.9
12,CCC(C)CS(=O)(=O)NCCc1csc(N2CCCC2)n1 (stereo unspecified),-1.21
13,CCc1ncc(CN(C)C2CCN(c3sccc3C#N)C2=O)s1 (stereo unspecified),-2.11
14,CN(CC(=O)N(C)C)Cc1ccc(C#N)cc1F,11.5
15,NCC1(CN2CCOCC2)CCCCC1,14.2
16,CC(NC(=O)c1cccc[n+]1[O-])C1CC1 (stereo unspecified),-4.24
17,CCN(Cc1ccc(C#N)cc1F)C(=O)C(C)(C)C,-0.767
18,CC(C)c1cc(C(=O)N2Cc3ccccc3CC2C(=O)O)nn1C (stereo unspecified),-2.03
19,CN(CC(=O)N(C)C(c1ccc(Cl)cc1)c1cccnc1)C1CC1 (stereo unspecified),-5.57
20,COCCNC(=O)c1ccc(NCc2csc(C)n2)cc1Cl,-2.04
21,CN(Cc1ccccc1F)C(=O)c1cc(Cl)c[nH]1,-2.89
22,CN(Cc1ccsc1)C(=O)COC(=O)c1cc(Cl)c[nH]1,-2.89
23,CC1COCCN1C(=O)COc1ccc(Oc2ccccn2)cc1 (stereo unspecified),1.4
24,O=C(Nc1cc(C(F)(F)F)c[nH]c1=O)C1CCCNC1 (stereo unspecified),-8

row,SMILES,cytotoxicity at 70.5 h [%]
1,O=C(Nc1cc(C(F)(F)F)c[nH]c1=O)C1CCNCC1,-12.8
2,O=C(Nc1cc(C(F)(F)F)c[nH]c1=O)C1CCCN1 (stereo unspecified),-10.7
3,N#CCCCS(=O)(=O)NC1(c2cccc(Cl)c2)CC1,-9.01
4,Cc1cc(NCc2cn(C)nc2-c2cccnc2)n(C)n1,-2.96
5,COCC(=O)Nc1ccc(C)cc1-c1nc(C2CC2)no1,-7.26
6,CN(C)C1(CNC(=O)c2c(O)cc(Cl)cc2Cl)CCOCC1,-9.63
7,Cc1ccc(NC(=O)N2CC[C@@H](O)C2)c(-c2nc(C3CC3)no2)c1,-3.95
8,CCCS(=O)(=O)CCN1CCN(C(C#N)c2ccccc2)CC1 (stereo unspecified),-8.86
9,CNS(=O)(=O)CCCN1CCN(C(C#N)c2ccccc2)CC1 (stereo unspecified),-11.2
10,CNC(=O)c1cccc(CN2CCN(C3=NCC(C)(C)S3)CC2)c1,-5.92
11,CC(C)c1cc(N2CCC(NS(C)(=O)=O)C2)nc(C(C)C)n1 (stereo unspecified),-10.9
12,Cc1noc(NCc2cn(C)nc2-c2cccnc2)n1,-12.1
13,CC(NC(=O)N(C)C1CC1)c1ccc(Oc2cccnc2)c(F)c1 (stereo unspecified),-8.76
14,CC(C)S(=O)(=O)CCN1CCN(C(C#N)c2ccccc2)CC1 (stereo unspecified),-7.44
15,Cc1ccc(C(=O)N(CC(=O)O)CC(C)C)cc1F,-7.92
16,CCN(Cc1ccncc1)C1CCN(c2ccccc2)C1=O (stereo unspecified),1.49
17,Cc1ccc(-c2nnn(CCN3C(=O)CCC3=O)n2)cc1,-3.33
18,O=C1CCC(=O)N1CCn1nnc(-c2cccc(Cl)c2)n1,1.35
19,COc1ccc(C)cc1CN(C)CC(N)=O,-7.37
20,Cc1noc(C)c1C(=O)N1CCC(n2cccn2)CC1,-3.66
21,CC(C)CCc1noc(C[S+]([O-])CC(=O)NCc2ccccc2)n1 (stereo unspecified),-1.48
22,Cc1c(NC(=O)NCCO)cccc1OC1CCCC1,-8.09
23,Cc1ccc(N(CCC#N)C(=O)CCc2cscn2)cc1C,-3.27
24,CCN(Cc1nccn1C)C1CCN(c2ccccc2)C1=O (stereo unspecified),-2.87

row,SMILES,cytotoxicity at 70.5 h [%]
1,Cc1c(NC(=O)NC(C)CCO)cccc1OC1CCCC1 (stereo unspecified),-2.19
2,CC(C)c1ccccc1OCCNC(=O)N1CCC2(CC1)OCCO2,-2.15
3,COc1c(C2CCCN2C(=O)c2ccc(C(N)=O)s2)c(C)nn1C (stereo unspecified),-7.38
4,CC(C)Cc1nc(C[S+]([O-])CC(=O)NCc2ccccc2)no1 (stereo unspecified),-5.17
5,COc1nc(C)ccc1CNC(=O)NC(c1ncc(C)s1)C1CC1 (stereo unspecified),-2.73
6,NC(=O)COc1cccc(Cn2cccn2)c1,-3.94
7,CN1CCC(Nc2ccc(F)cc2OCC(F)(F)F)C1=O (stereo unspecified),-0.0891
8,CC(C(N)=O)N1CCN(c2ncc(Cl)cn2)CC1 (stereo unspecified),-5.36
9,CC(C(=O)N1CCCC1)N1CCN(c2ncc(Cl)cn2)CC1 (stereo unspecified),-3.08
10,CN1CCC(Nc2ccc(Cl)cc2OCC(F)(F)F)C1=O (stereo unspecified),-3.11
11,CC(C(=O)N1CCCCC1)N1CCN(c2ncc(Cl)cn2)CC1 (stereo unspecified),-0.389
12,CNC(=O)[C@@H](C)NC(=O)c1cc(-c2ccc(F)cc2)c(C)s1,-3.7
13,CNC(=O)CNC(=O)NCc1cc2c(s1)CCC(C)(C)C2,2.16
14,COC(C(=O)NC1CCN(S(C)(=O)=O)CC1)c1ccccc1 (stereo unspecified),15.6
15,O=C(NCCN1CCOCC1)NCc1ccc(-n2cccn2)cc1,1.89
16,CCc1ncncc1C(=O)NCCNS(=O)(=O)c1ccccc1,13.9
17,O=S(=O)(c1ccc(Cl)cc1)N1CCc2nc(C3CCNCC3)ncc2C1,-4.46
18,Cc1noc(C)c1S(=O)(=O)N1CCc2nc(C3CCNCC3)ncc2C1,-6.62
19,O=C(Nc1cc(C(F)(F)F)c[nH]c1=O)C1CCCCN1 (stereo unspecified),-8.9
20,O=C(c1cc(C2CCCCN2CCO)n[nH]1)N1CCOCC1 (stereo unspecified),-9.24

# Source: ChEMBL document CHEMBL3507680, “University of Dundee, Gates Library screen for HepG2 cell viability”
